Test results as given in ChEMBL document CHEMBL1909294, “Translating clinical findings into knowledge in drug safety evaluation--drug induced liver injury prediction system (DILIps)” (PLoS Comput Biol, 2011).

Assays:
Hepatotoxicity [1] = test system: Hepatotoxicity;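 on HepSE Combined Scores: combined hepatic side effect score as listed in the training data of the Drug Induced Liver Injury Prediction System (DILIps)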;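 on HepSE cholelithiasis: hepatic side effect score for cholelithiasis, drawn from the DILIps training data for predicting drug-induced liver injury; call rule not given here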;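 on HepSE cirrhosis: cirrhosis hepatic side effect score taken from the DILIps (drug-induced liver injury prediction) training set; call rule not given here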; on HepSE hepatic failure: call rule not given here;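 on HepSE hepatic necrosis: score of hepatic side effects for hepatic necrosis, drawn from the training data of DILIps, a prediction system for drug-induced liver injury; call rule not given here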;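 on HepSE hepatomegaly: hepatic side effect score for hepatomegaly, taken from the training set of the DILIps drug-induced liver injury prediction system; call rule not given here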; on HepSE liver disease: call rule not given here
Hepatotoxicity [2] = test system: Hepatotoxicity; remark: listed apart in the source;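 on HepSE Combined Scores: combined hepatic side effect score as listed in the training data of the Drug Induced Liver Injury Prediction System (DILIps)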;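 on HepSE cholelithiasis: hepatic side effect score for cholelithiasis, drawn from the DILIps training data for predicting drug-induced liver injury; call rule not given here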;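 on HepSE cirrhosis: cirrhosis hepatic side effect score taken from the DILIps (drug-induced liver injury prediction) training set; call rule not given here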; on HepSE hepatic failure: call rule not given here;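 on HepSE hepatic necrosis: score of hepatic side effects for hepatic necrosis, drawn from the training data of DILIps, a prediction system for drug-induced liver injury; call rule not given here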;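 on HepSE hepatomegaly: hepatic side effect score for hepatomegaly, taken from the training set of the DILIps drug-induced liver injury prediction system; call rule not given here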; on HepSE liver disease: call rule not given here
Hepatotoxicity [3] = test system: Hepatotoxicity; remark: listed apart in the source;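 on HepSE Combined Scores: combined hepatic side effect score as listed in the training data of the Drug Induced Liver Injury Prediction System (DILIps)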;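 on HepSE cholelithiasis: hepatic side effect score for cholelithiasis, drawn from the DILIps training data for predicting drug-induced liver injury; call rule not given here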;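 on HepSE cirrhosis: cirrhosis hepatic side effect score taken from the DILIps (drug-induced liver injury prediction) training set; call rule not given here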; on HepSE hepatic failure: call rule not given here;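 on HepSE hepatic necrosis: score of hepatic side effects for hepatic necrosis, drawn from the training data of DILIps, a prediction system for drug-induced liver injury; call rule not given here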;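 on HepSE hepatomegaly: hepatic side effect score for hepatomegaly, taken from the training set of the DILIps drug-induced liver injury prediction system; call rule not given here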; on HepSE liver disease: call rule not given here
Hepatotoxicity [4] = test system: Hepatotoxicity; remark: listed apart in the source;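 on HepSE Combined Scores: combined hepatic side effect score as listed in the training data of the Drug Induced Liver Injury Prediction System (DILIps)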;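 on HepSE cholelithiasis: hepatic side effect score for cholelithiasis, drawn from the DILIps training data for predicting drug-induced liver injury; call rule not given here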;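 on HepSE cirrhosis: cirrhosis hepatic side effect score taken from the DILIps (drug-induced liver injury prediction) training set; call rule not given here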; on HepSE hepatic failure: call rule not given here;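 on HepSE hepatic necrosis: score of hepatic side effects for hepatic necrosis, drawn from the training data of DILIps, a prediction system for drug-induced liver injury; call rule not given here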;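 on HepSE hepatomegaly: hepatic side effect score for hepatomegaly, taken from the training set of the DILIps drug-induced liver injury prediction system; call rule not given here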; on HepSE liver disease: call rule not given here
Hepatotoxicity [5] = test system: Hepatotoxicity; remark: listed apart in the source; on HepSE hepatic failure: call rule not given here; on HepSE liver disease: call rule not given here
Hepatotoxicity [6] = test system: Hepatotoxicity; remark: listed apart in the source; on HepSE liver disease: call rule not given here
Hepatotoxicity [7] = test system: Hepatotoxicity; remark: listed apart in the source
Hepatotoxicity [8] = test system: Hepatotoxicity; remark: listed apart in the source
Hepatotoxicity [9] = test system: Hepatotoxicity; remark: listed apart in the source
Hepatotoxicity [10] = test system: Hepatotoxicity; remark: listed apart in the source
Hepatotoxicity [11] = test system: Hepatotoxicity; remark: listed apart in the source
Hepatotoxicity [12] = test system: Hepatotoxicity; remark: listed apart in the source
Hepatotoxicity [13] = test system: Hepatotoxicity; remark: listed apart in the source
Hepatotoxicity [14] = test system: Hepatotoxicity; remark: listed apart in the source

Structure (SMILES)	HepSE_cholelithiasis (Hepatotoxicity [1])	HepSE_cirrhosis (Hepatotoxicity [2])	HepSE_Combined Scores (Hepatotoxicity [3])	HepSE_hepatic necrosis (Hepatotoxicity [4])	HepSE_bilirubinemia (Hepatotoxicity [5])	HepSE_hepatomegaly (Hepatotoxicity [6])	HepSE_liver disease (Hepatotoxicity [7])	HepSE_hepatic failure (Hepatotoxicity [8])	HepSE_cholecystitis (Hepatotoxicity [9])	HepSE_hepatitis (Hepatotoxicity [10])	HepSE_elevated liver function tests (Hepatotoxicity [11])	HepSE_liver function tests abnormal (Hepatotoxicity [12])	HepSE_jaundice (Hepatotoxicity [13])	HepSE_liver fatty (Hepatotoxicity [14])
C[C@H]1C[C@H]2[C@@H]3CCC4=CC(=O)C=C[C@]4(C)[C@@]3(Cl)[C@@H](O)C[C@]2(C)[C@@]1(O)C(=O)CO [BECLOMETHASONE]	0	0	0	0	0	0	0	0	0	0	0	0	0	0
[Cl-].[Na+] [SODIUM CHLORIDE]	0	0	0	0	0	0	0	0	0	0	0	0	0	0
CCN(CC)CCNC(=O)c1c(C)[nH]c(/C=C2\C(=O)Nc3ccc(F)cc32)c1C [SUNITINIB]	0	0	2	0	0	0	0	1	0	0	0	0	1	0
Nc1nc(N)c2nc(-c3ccccc3)c(N)nc2n1	0	0	1	0	0	0	0	0	0	0	0	0	1	0
C[C@]12CCC(=O)C=C1CC[C@@H]1[C@@H]2CC[C@@]2(C)[C@H]1CC[C@]2(C)O [METHYLTESTOSTERONE]	0	0	1	0	0	0	0	0	0	0	0	0	1	0
C[C@@H]1O[C@@H]1P(=O)(O)O [FOSFOMYCIN]	0	0	2	1	0	0	0	0	0	0	0	0	1	0
COC(=O)N[C@H](C(=O)N[C@@H](Cc1ccccc1)[C@@H](O)CN(Cc1ccc(-c2ccccn2)cc1)NC(=O)[C@@H](NC(=O)OC)C(C)(C)C)C(C)(C)C [ATAZANAVIR]	1	0	7	0	1	1	0	0	1	1	0	0	1	1
O=NN(CCCl)C(=O)NCCCl [CARMUSTINE]	0	0	1	0	0	0	0	0	0	0	0	1	0	0
Oc1ccc2c3c1O[C@H]1[C@@H](O)CC[C@@]4(O)[C@@H](C2)N(CC2CCC2)CC[C@]314 [NALBUPHINE]	0	0	0	0	0	0	0	0	0	0	0	0	0	0
CC(C)(C)NCC(O)COc1cccc2c1CC(O)C(O)C2 (configuration not stated) [NADOLOL]	0	0	0	0	0	0	0	0	0	0	0	0	0	0
CC(C)NCC(O)COc1cccc2[nH]ccc12 (configuration not stated) [PINDOLOL]	0	0	0	0	0	0	0	0	0	0	0	0	0	0
C=C1CC[C@H](O)C/C1=C/C=C1\CCC[C@]2(C)[C@@H]([C@H](C)CCCC(C)C)CC[C@@H]12 [CHOLECALCIFEROL]	0	0	0	0	0	0	0	0	0	0	0	0	0	0
N[C@@H]1[C@H]2CN(c3nc4c(cc3F)c(=O)c(C(=O)O)cn4-c3ccc(F)cc3F)C[C@@H]12 [TROVAFLOXACIN]	0	0	5	1	1	0	0	1	0	1	0	0	1	0
